# Laboratory results reported in the SangsterLogP compilation.
# Test: method code SF-AS, from DOI: 10.1016/0048-3575(91)90045-n
row,logP,Structure (SMILES)
1,2.88,O=C(NC(=O)c1c(F)cccc1F)Nc1ccc(Cl)c(Cl)c1Cl
2,2.86,O=C(NC(=O)c1c(F)cccc1F)Nc1ccc(Br)c(Cl)c1F
3,2.69,Cc1ccc(NC(=O)NC(=O)c2c(F)cccc2F)cc1Cl
4,3.72,O=C(NC(=O)c1c(F)cccc1F)Nc1cc(C(F)(F)F)cc(C(F)(F)F)c1
5,2.17,Cc1cc(C)cc(NC(=O)NC(=O)c2c(F)cccc2F)c1
6,2.03,Cc1cc(Br)ccc1NC(=O)NC(=O)c1c(F)cccc1F
7,4.46,O=C(NC(=O)c1c(F)cccc1F)Nc1ccc(Oc2ncc(C(F)(F)F)cc2Cl)c(Cl)c1Cl
8,3.27,O=C(NC(=O)c1c(F)cccc1F)Nc1cc(Cl)cc(C(F)(F)F)c1Cl
9,3.24,O=C(NC(=O)c1c(F)cccc1F)Nc1cc(C(F)(F)F)c(Cl)cc1Cl
10,4.23,CCCCc1ccc(NC(=O)NC(=O)c2c(F)cccc2F)cc1Br
11,2.12,Cc1cc(Br)cc(C)c1NC(=O)NC(=O)c1c(F)cccc1F
12,3.23,Cc1cc(Oc2ncc(C(F)(F)F)cc2Cl)ccc1NC(=O)NC(=O)c1c(F)cccc1F
13,1.16,O=C(NC(=O)c1c(F)cccc1F)Nc1ccccc1
14,3.76,O=C(NC(=O)c1c(F)cccc1F)Nc1cc(Cl)c(Cl)c(Cl)c1
15,3.3,CCCCc1ccc(NC(=O)NC(=O)c2c(F)cccc2F)cc1
16,2.56,O=C(NC(=O)c1c(F)cccc1F)Nc1cccc(C(F)(F)F)c1
17,2.84,CC(C)Oc1cc(NC(=O)NC(=O)c2c(F)cccc2F)c(F)cc1Cl
18,3.51,O=C(NC(=O)c1c(F)cccc1F)Nc1cc(C(F)(F)F)cc(C(F)(F)F)c1Br
19,2.24,O=C(NC(=O)c1c(F)cccc1F)Nc1cc(C(F)(F)F)ccc1F
20,3.15,O=C(NC(=O)c1c(F)cccc1F)Nc1cc(Cl)cc(C(F)(F)F)c1F
21,3.33,CCc1cc(NC(=O)NC(=O)c2c(F)cccc2F)ccc1Br
22,2.34,O=C(NC(=O)c1c(F)cccc1F)Nc1cc(C(F)(F)F)c(F)cc1F
23,1.82,Cc1c(Cl)cccc1NC(=O)NC(=O)c1c(F)cccc1F
24,2.73,Cc1c(Br)ccc(NC(=O)NC(=O)c2c(F)cccc2F)c1Cl
25,2.18,O=C(NC(=O)c1c(F)cccc1F)Nc1ccc(Cl)cc1Cl
26,1.47,O=C(NC(=O)c1c(F)cccc1F)Nc1ccc(F)cc1

row,logP,Structure (SMILES)
1,3.17,O=C(NC(=O)c1c(F)cccc1F)Nc1cc(C(F)(F)F)c(Br)cc1F
2,2.69,Cc1c(NC(=O)NC(=O)c2c(F)cccc2F)ccc(Br)c1Cl
3,3.27,O=C(NC(=O)c1c(F)cccc1F)Nc1cc(C(F)(F)F)cc(Cl)c1Cl
4,3.79,CC(C)COc1cc(NC(=O)NC(=O)c2c(F)cccc2F)c(F)cc1Cl
5,3.1,CCCCc1ccc(NC(=O)NC(=O)c2c(F)cccc2F)c(C)c1
6,3.39,CCCCc1ccc(NC(=O)NC(=O)c2c(F)cccc2F)c(Br)c1
7,2.09,O=C(NC(=O)c1c(F)cccc1F)Nc1cccc(Cl)c1Cl
8,2.2,CCc1ccc(NC(=O)NC(=O)c2c(F)cccc2F)cc1
9,2.8,Cc1cc(NC(=O)NC(=O)c2c(F)cccc2F)ccc1Br
10,1.73,O=C(NC(=O)c1c(F)cccc1F)Nc1c(F)cc(Br)cc1F
11,3,O=C(NC(=O)c1c(F)cccc1F)Nc1ccc(Cl)c(Cl)c1
12,1.91,O=C(NC(=O)c1c(F)cccc1F)Nc1ccc(Cl)cc1F
13,3.1,CCCCc1ccc(NC(=O)NC(=O)c2c(F)cccc2F)c([N+](=O)[O-])c1
14,2.2,C#CCOc1cc(NC(=O)NC(=O)c2c(F)cccc2F)c(F)cc1Cl
15,3.28,Cc1cc(NC(=O)NC(=O)c2c(F)cccc2F)cc(C)c1Br
16,2.5,Cc1cc(NC(=O)NC(=O)c2c(F)cccc2F)cc(C)c1C
17,3.02,O=C(NC(=O)c1c(F)cccc1F)Nc1cc(C(F)(F)F)c(Cl)cc1F
18,1.34,O=C(NC(=O)c1c(F)cccc1F)Nc1ccccc1Br
19,2.27,CCc1cc(Br)ccc1NC(=O)NC(=O)c1c(F)cccc1F
20,3.04,O=C(NC(=O)c1c(F)cccc1F)Nc1cc(Cl)cc(Cl)c1Br
21,2.48,O=C(NC(=O)c1c(F)cccc1F)Nc1cc(OC(F)(F)F)c(F)cc1F
22,1.17,O=C(NC(=O)c1c(F)cccc1F)Nc1ccccc1C(F)(F)F
23,2.02,COc1cc(Br)ccc1NC(=O)NC(=O)c1c(F)cccc1F
24,3.84,Cc1cc(Oc2ncc(C(F)(F)F)cc2Cl)c(C)cc1NC(=O)NC(=O)c1c(F)cccc1F
25,2.11,O=C(NC(=O)c1c(F)cccc1F)Nc1cc([N+](=O)[O-])c(Br)cc1F
26,1.98,O=C(NC(=O)c1c(F)cccc1F)Nc1ccc(Cl)cc1C(F)(F)F

row,logP,Structure (SMILES)
1,3.24,O=C(NC(=O)c1c(F)cccc1F)Nc1cc(OC(F)(F)F)c(Br)cc1F
2,3.07,O=C(NC(=O)c1c(F)cccc1F)Nc1c(F)cc(Br)c(C(F)(F)F)c1Br
3,3.41,O=C(NC(=O)c1c(F)cccc1F)Nc1cc(Br)cc(C(F)(F)F)c1Cl
4,2.19,O=C(NC(=O)c1c(F)cccc1F)Nc1cc(Cl)ccc1Cl
5,3.64,CCCCc1ccc(NC(=O)NC(=O)c2c(F)cccc2F)cc1C
6,1.35,Cc1cccc(NC(=O)NC(=O)c2c(F)cccc2F)c1C
7,1.46,Cc1ccc(NC(=O)NC(=O)c2c(F)cccc2F)c(C)c1
8,2.86,O=C(NC(=O)c1c(F)cccc1F)Nc1cc(F)cc(C(F)(F)F)c1Cl
9,4.56,O=C(NC(=O)c1c(F)cccc1F)Nc1cc(C(F)(F)F)c(Br)c(C(F)(F)F)c1
10,2.1,Cc1ccc(NC(=O)NC(=O)c2c(F)cccc2F)cc1C
11,2.64,O=C(NC(=O)c1c(F)cccc1F)Nc1ccc(F)c(C(F)(F)F)c1
12,1.83,O=C(NC(=O)c1c(F)cccc1F)Nc1cccc(Cl)c1F
13,2.57,Cc1cc(NC(=O)NC(=O)c2c(F)cccc2F)ccc1Cl
14,1.03,O=C(NC(=O)c1c(F)cccc1F)Nc1ccccc1F
15,2.9,O=C(NC(=O)c1c(F)cccc1F)Nc1cc(Cl)c(Cl)c(Cl)c1Cl
16,2.29,O=C(NC(=O)c1c(F)cccc1F)Nc1ccc(Br)cc1
17,3.26,O=C(NC(=O)c1c(F)cccc1F)Nc1cc(Cl)cc(C(F)(F)F)c1Br
18,2.22,O=C(NC(=O)c1c(F)cccc1F)Nc1c(F)ccc(C(F)(F)F)c1Br
19,3.48,O=C(NC(=O)c1c(F)cccc1F)Nc1ccc(Br)c(OC(F)(F)F)c1
20,2.18,CSc1cc(Br)ccc1NC(=O)NC(=O)c1c(F)cccc1F
21,2.76,C=CCOc1cc(NC(=O)NC(=O)c2c(F)cccc2F)c(F)cc1Cl
22,2.46,O=C(NC(=O)c1c(F)cccc1F)Nc1ccc(I)cc1
23,1.47,Cc1ccc(C)c(NC(=O)NC(=O)c2c(F)cccc2F)c1
24,4.52,O=C(NC(=O)c1c(F)cccc1F)Nc1ccc(Oc2ncc(C(F)(F)F)cc2Cl)c(Cl)c1

row,Structure (SMILES),logP
1,O=C(NC(=O)c1c(F)cccc1F)Nc1cc(Cl)c(Oc2ncc(C(F)(F)F)cc2Cl)c(Cl)c1,5.54
2,O=C(NC(=O)c1c(F)cccc1F)Nc1cc(Cl)cc(Cl)c1,3.17
3,O=C(NC(=O)c1c(F)cccc1F)Nc1ccc(Cl)cc1,2.12
4,O=C(NC(=O)c1c(F)cccc1F)Nc1cc(Cl)c(F)c(Cl)c1F,2.9
5,O=C(NC(=O)c1c(F)cccc1F)Nc1ccc(Cl)c(C(F)(F)F)c1,3.33
